Key:
[1] = molecular target: T1, translationally controlled tumor protein (TCTP) (Homo sapiens, UniProt P13693); experiment: microscale thermophoresis with NHS-labeled purified human TCTP (reference inhibitor, positive control); assay type: binding
T1 construct: gene TPT1
T1 sequence (P13693 1-172): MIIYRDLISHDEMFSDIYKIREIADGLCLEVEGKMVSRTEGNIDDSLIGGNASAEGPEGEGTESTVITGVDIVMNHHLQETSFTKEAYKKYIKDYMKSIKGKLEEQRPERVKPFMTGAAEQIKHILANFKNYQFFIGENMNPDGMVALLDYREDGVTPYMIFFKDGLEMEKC

[2] = molecular target: T1, translationally controlled tumor protein (TCTP); experiment: microscale thermophoresis with NHS-labeled purified human TCTP; supported by co-immunoprecipitation of p53 from treated MOLT-4 cells; assay type: binding

Kd [1] | Kd [2] | SMILES
23.2 ± 9.45 µM |  | C[C@H]1[C@H](OC(=O)CCC(=O)O)O[C@@H]2O[C@@]3(C)CC[C@H]4[C@H](C)CC[C@@H]1[C@@]24OO3 [Artesunate]
 | 0.87 ± 0.38 µM | COc1cccc2c(C)nc(Nc3nc(-c4ccc(F)cc4)cc(=O)[nH]3)nc12 [ZINC10157406, 6-(4-fluorophenyl)-2-[(8-methoxy-4-methyl-2-quinazolinyl)amino]-4(3H)-pyrimidinone]

From paper PMC8280061, “A novel ligand of the translationally controlled tumor protein (TCTP) identified by virtual drug screening for cancer differentiation therapy” (Investigational New Drugs, 2021)
